Measured values: USRE39609E1, “8-iso-prostaglandins for glaucoma therapy” (Mount Sinai School of Medicine of New York University, priority 1997, dated 2007)

Legend:
Assay type in all cases: in vivo
[1] = system: laser-induced glaucomatous eyes in cynomolgus monkeys; assay: Intraocular pressure after single topical dose in glaucomatous monkey eyes; settings: for Intraocular Pressure (treated - baseline) (mean ± SEM) / relative activity in decreasing IOP among the compounds tested: glaucomatous monkey eyes; for maximum reduction in IOP (mean SEM) / time for which IOP was reduced (p<0.05): single 25 μl dose of 0.1 percent, laser-induced glaucomatous eyes, cynomolgus monkeys; for relative activity in decreasing IOP among the compounds tested: 0.1 percent; for maximum reduction in IOP (mean±SEM) as compared to baseline / time for which IOP was reduced (p<0.005): single 25 μl dose
Description: Experiments were performed to evaluate the effects of single dose administration of 8-iso PGE2 an IOP in normal (“N”) and glaucomatous (“G”) monkey eyes, and to determine the mechanism by which 8-iso PGE2 alters IOP in N monkey eyes, when applied topically. A single 25 μl dose study was performed in 6 N and 8 G monkeys. IOP and pupil sizes were measured before and at 0 hr, 0.5 hr and then hourly for a total of 6 hrs after 0.05% or 0.1% drug concentrations were administered. Tonographic outflow facility (“C”) and fluorophotometric aqueous humor flow (F) were determined in 6 N monkeys before and after unilateral application of 25 μl of 0.1% 8-iso PGE2. In 8 G monkey eyes, 8-isoPGE2 reduced IOP (p<0.005) up to 2 hrs or 5 hrs following administration of the 0.05% or 0.1% concentration, respectively. The maximum reduction in IOP was 4.6±0.8 (mean±SEM)mm Hg (0.05%) and 6.6±0.8 mm Hg (0.1%), as compared to baseline measurements. After topical application of 8-iso PGE2 the IOP was lower (p<0.01) in the treated eyes of 6 N monkeys for 4 hrs, with a maximum difference of 3.2±0.2 mmHg, as compared to the fellow contralateral control eyes. The pupil size was smaller (p<0.01) for 4 hrs, up to 1.0±0.2 mm. Compared with vehicle-treated contralateral control eyes, C was greater (p<0.005) by 48% at 2 hr after a single dose of 0.1% 8-iso PGE2. F was unchanged (p<0.10) over a period of 4 hrs after drug administration. […] Because of the individual variability in laser-induced glaucomatous monkey eyes, the IOP and facility measurements are expressed in the table as ratios (value of the drug-treated eye+the value of the vehicle-treated eye). The ratios were calculated from the values of the same glaucomatous monkey eye determined immediately prior to administration of the drug or the vehicle (time 0 hrs.), and the values at 2 hours after administration of the drug or vehicle. […] Thus the mechanism of lowering IOP by 8-iso PGE2 in both normal and glaucomatous eyes is primarily due to an increase in aqueous humor trabecular outflow. IOP was measured one hour before and at intervals up to six hours after a single dose of 8-iso PGE, (the 13, 14 dihydro derivative of 8-iso PGE2), 8-iso PGE2, or 8-iso PGF2α in laser-induced glaucomatous eyes in cynomolgus monkeys (wherein only one eye is rendered glaucomatous and the other serves as a control). Following one day of baseline IOP measurement, a single 25 μl dose of either (i) 0.1 percent 8-iso PGE1, or (ii) 0.1 percent 8-iso PGE2, or (iii) 0.1 percent 8-iso PGF2α, was topically applied to the glaucomatous eye in groups of 4 or 8 monkeys. […] The maximum reduction in IOP was 5.3±0.8 (mean SEM) mm Hg at 2 hours after dosing 8-iso PGE2 (0.1 percent) reduced IOP (p<0.05) for 5 hours with a maximum reduction in IOP of 6.6±0.8 mm Hg at 2 hours after dosing (n=8). […] Based on these studies, of the compounds tested, 8-iso PGE2 appears to have the greatest and 8-iso PGF2α, the least activity in decreasing IOP in glaucomatous monkey eyes.

normal monkey eyes [2] = assay: Intraocular pressure after single topical dose in normal monkey eyes
Description: Experiments were performed to evaluate the effects of single dose administration of 8-iso PGE2 an IOP in normal (“N”) and glaucomatous (“G”) monkey eyes, and to determine the mechanism by which 8-iso PGE2 alters IOP in N monkey eyes, when applied topically. A single 25 μl dose study was performed in 6 N and 8 G monkeys. […] Tonographic outflow facility (“C”) and fluorophotometric aqueous humor flow (F) were determined in 6 N monkeys before and after unilateral application of 25 μl of 0.1% 8-iso PGE2. In 8 G monkey eyes, 8-isoPGE2 reduced IOP (p<0.005) up to 2 hrs or 5 hrs following administration of the 0.05% or 0.1% concentration, respectively. The maximum reduction in IOP was 4.6±0.8 (mean±SEM)mm Hg (0.05%) and 6.6±0.8 mm Hg (0.1%), as compared to baseline measurements. After topical application of 8-iso PGE2 the IOP was lower (p<0.01) in the treated eyes of 6 N monkeys for 4 hrs, with a maximum difference of 3.2±0.2 mmHg, as compared to the fellow contralateral control eyes. The pupil size was smaller (p<0.01) for 4 hrs, up to 1.0±0.2 mm. Compared with vehicle-treated contralateral control eyes, C was greater (p<0.005) by 48% at 2 hr after a single dose of 0.1% 8-iso PGE2. F was unchanged (p<0.10) over a period of 4 hrs after drug administration.

normal monkey eyes [3] = assay: Pupil size after topical application in normal monkeys
Description: (§1) Experiments were performed to evaluate the effects of single dose administration of 8-iso PGE2 an IOP in normal (“N”) and glaucomatous (“G”) monkey eyes, and to determine the mechanism by which 8-iso PGE2 alters IOP in N monkey eyes, when applied topically. A single 25 μl dose study was performed in 6 N and 8 G monkeys. IOP and pupil sizes were measured before and at 0 hr, 0.5 hr and then hourly for a total of 6 hrs after 0.05% or 0.1% drug concentrations were administered. Tonographic outflow facility (“C”) and fluorophotometric aqueous humor flow (F) were determined in 6 N monkeys before and after unilateral application of 25 μl of 0.1% 8-iso PGE2. In 8 G monkey eyes, 8-isoPGE2 reduced IOP (p<0.005) up to 2 hrs or 5 hrs following administration of the 0.05% or 0.1% concentration, respectively. The maximum reduction in IOP was 4.6±0.8 (mean±SEM)mm Hg (0.05%) and 6.6±0.8 mm Hg (0.1%), as compared to baseline measurements. After topical application of 8-iso PGE2 the IOP was lower (p<0.01) in the treated eyes of 6 N monkeys for 4 hrs, with a maximum difference of 3.2±0.2 mmHg, as compared to the fellow contralateral control eyes. The pupil size was smaller (p<0.01) for 4 hrs, up to 1.0±0.2 mm. Compared with vehicle-treated contralateral control eyes, C was greater (p<0.005) by 48% at 2 hr after a single dose of 0.1% 8-iso PGE2. […]

glaucomatous monkey eyes = assay: Outflow facility in glaucomatous monkey eyes; settings: 0.1%, 8 glaucomatous monkey eyes
Description: Because of the individual variability in laser-induced glaucomatous monkey eyes, the IOP and facility measurements are expressed in the table as ratios (value of the drug-treated eye+the value of the vehicle-treated eye). The ratios were calculated from the values of the same glaucomatous monkey eye determined immediately prior to administration of the drug or the vehicle (time 0 hrs.), and the values at 2 hours after administration of the drug or vehicle. […] Thus the mechanism of lowering IOP by 8-iso PGE2 in both normal and glaucomatous eyes is primarily due to an increase in aqueous humor trabecular outflow.

monkey eyes = assay: Ocular side effects after topical dosing in monkey eyes; settings: eyes treated with the 0.1% concentration
Description: as §1

normal monkey eyes [4] = assay: Fluorophotometric aqueous humor flow (F) in normal monkeys; settings: 6 normal monkeys, over 4 hrs after 25 μl of 0.1%
Description: as §1

normal monkey eyes [5] = assay: Tonographic outflow facility (C) in normal monkeys
Description: Experiments were performed to evaluate the effects of single dose administration of 8-iso PGE2 an IOP in normal (“N”) and glaucomatous (“G”) monkey eyes, and to determine the mechanism by which 8-iso PGE2 alters IOP in N monkey eyes, when applied topically. A single 25 μl dose study was performed in 6 N and 8 G monkeys. […] In 8 G monkey eyes, 8-isoPGE2 reduced IOP (p<0.005) up to 2 hrs or 5 hrs following administration of the 0.05% or 0.1% concentration, respectively. The maximum reduction in IOP was 4.6±0.8 (mean±SEM)mm Hg (0.05%) and 6.6±0.8 mm Hg (0.1%), as compared to baseline measurements. After topical application of 8-iso PGE2 the IOP was lower (p<0.01) in the treated eyes of 6 N monkeys for 4 hrs, with a maximum difference of 3.2±0.2 mmHg, as compared to the fellow contralateral control eyes. The pupil size was smaller (p<0.01) for 4 hrs, up to 1.0±0.2 mm. […] F was unchanged (p<0.10) over a period of 4 hrs after drug administration.

[6] = 0.1%, 2 hours after treatment, 6 normal monkeys (Table 1A)
[7] = 0.005%, 6 normal monkeys, 1 hour after treatment
[8] = 0.005%, 1 hour after treatment, 6 normal monkeys (Table 1B)

## CCCCC[C@H](O)/C=C/[C@H]1[C@H](O)CC(=O)[C@H]1CCCCCCC(=O)O [8-iso PGE1, 8-iso, 5,6 dihydro prostaglandin E2]
[1]; 0.1%, 1 hr
  Intraocular Pressure (treated - baseline) (mean ± SEM): −3.3 ± 1.3 mm Hg
[1]; 0.1%, 2 hr
  Intraocular Pressure (treated - baseline) (mean ± SEM): −5.3 ± 0.8 mm Hg
[1]; 0.1%, 4 hr
  Intraocular Pressure (treated - baseline) (mean ± SEM): −2.3 ± 0.5 mm Hg
[1]; 0.1%, 6 hr
  Intraocular Pressure (treated - baseline) (mean ± SEM): −1.3 ± 0.9 mm Hg
[1]
  maximum reduction in IOP (mean SEM): 5.3±0.8 mm Hg
  time for which IOP was reduced (p<0.05): up to four

## CCCCC[C@H](O)/C=C/[C@H]1[C@H](O)CC(=O)[C@H]1C/C=C\CCCC(=O)O [8-iso PGE2, prosta-5,13-dien-1-oic acid, 11,15-dihydroxy-9-oxo, (5Z, 8β, 11α, 13E,15S)]
Normal monkey eyes [2]; 0.1%, 6 normal monkeys, 2 hours after treatment
  Intraocular Pressure Mean ± SEM, treated eyes (drug): 13.0 ± 0.7 mmHg
Normal monkey eyes [2]; [6]
  lowering of IOP in normal monkey eye: 20.3%
Normal monkey eyes [2]; 6 normal monkeys, topical application
  maximum difference in IOP as compared to fellow contralateral control eyes: 3.2±0.2 mmHg
Normal monkey eyes [2]; 6 normal monkeys, topical application, vs fellow contralateral control eyes
  time for which IOP was lower (p<0.01) in treated eyes: 4 h
Normal monkey eyes [3]
  reduction in pupil size: up to 1.0±0.2 mm
  time for which pupil size was smaller (p<0.01): 4 h
Glaucomatous monkey eyes; 2 hr
  Outflow facility response ratio (drug-treated/vehicle treated): 1.445 ±
Glaucomatous monkey eyes; 2 hr vs 0 hr
  % change by drug in outflow facility: 38.8%
Monkey eyes
  ocular side effects: Mild eyelid edema, conjunctival edema, hyperemia, and discharge appeared in some eyes
[1]; 0.1%, 8 glaucomatous monkey eyes, 2 hr
  Intraocular Pressure response ratio (drug-treated/vehicle-treated): 0.843 ±
[1]; 0.1%, 8 glaucomatous monkey eyes, 2 hr vs 0 hr
  % change by drug in intraocular pressure (decrease): 13.8%
[1]; 0.1%, 1 hr
  Intraocular Pressure (treated - baseline) (mean ± SEM): −4.5 ± 0.9 mm Hg
[1]; 0.1%, 2 hr
  Intraocular Pressure (treated - baseline) (mean ± SEM): −6.6 ± 0.8 mm Hg
[1]; 0.1%, 4 hr
  Intraocular Pressure (treated - baseline) (mean ± SEM): −2.9 ± 0.6 mm Hg
[1]; 0.1%, 6 hr
  Intraocular Pressure (treated - baseline) (mean ± SEM): −1.2 ± 1.2 mm Hg
[1]
  relative activity in decreasing IOP among the compounds tested: greatest
  maximum reduction in IOP (mean SEM): 6.6±0.8 mm Hg
  time for which IOP was reduced (p<0.05): 5 h
[1]; 8 glaucomatous monkey eyes, 0.05%
  maximum reduction in IOP (mean±SEM) as compared to baseline: 4.6±0.8 mm Hg
[1]; 8 glaucomatous monkey eyes, 0.05% concentration
  time for which IOP was reduced (p<0.005): up to 2 hrs
[1]; 8 glaucomatous monkey eyes, 0.1%
  maximum reduction in IOP (mean±SEM) as compared to baseline: 6.6±0.8 mm Hg
[1]; 8 glaucomatous monkey eyes, 0.1% concentration
  time for which IOP was reduced (p<0.005): ≤ 5 h
Normal monkey eyes [4]
  aqueous humor flow F change: unchanged
Normal monkey eyes [5]; [6]
  increase of outflow facility in normal monkey eye: 43.1%
Normal monkey eyes [5]; 6 normal monkeys, 2 hr after single 25 μl dose of 0.1%
  outflow facility C greater compared with vehicle-treated contralateral control eyes (p<0.005): 48%

## CCCCC[C@H](O)/C=C/[C@@H]1[C@H](C/C=C\CCCC(=O)O)[C@@H](O)C[C@H]1O [8-iso PGF2α, prosta-5,13-dien-1-oic acid, 9, 11, 15-trihydroxy-, (5Z, 8β, 9α, 11α, 13E, 15S)-]
[1]; 0.1%, 1 hr
  Intraocular Pressure (treated - baseline) (mean ± SEM): −3.3 ± 0.8 mm Hg
[1]; 0.1%, 2 hr
  Intraocular Pressure (treated - baseline) (mean ± SEM): −1.8 ± 1.1 mm Hg
[1]; 0.1%, 4 hr
  Intraocular Pressure (treated - baseline) (mean ± SEM): −0.8 ± 1.7 mm Hg
[1]; 0.1%, 6 hr
  Intraocular Pressure (treated - baseline) (mean ± SEM): 0.3 ± 0.5 mm Hg
[1]
  relative activity in decreasing IOP among the compounds tested: least
  maximum reduction in IOP (mean SEM): 3.3±0.9 mm Hg
  time for which IOP was reduced (p<0.05): only at 1 hour

## CC(C)OC(=O)CCC/C=C\C[C@@H]1[C@@H](CC[C@@H](O)CCc2ccccc2)[C@H](O)C[C@@H]1O [latanoprost, reference compound]
Normal monkey eyes [2]; [7]
  Intraocular Pressure Mean ± SEM, treated eyes (drug): 13.2 ± 0.7 mmHg
Normal monkey eyes [2]; [8]
  lowering of IOP in normal monkey eye: 10.8%
Normal monkey eyes [5]; [7]
  Outflow Facility Mean ± SEM, treated eyes (drug): 0.76 ± 0.08 μl/min/mmHg
Normal monkey eyes [5]; [8]
  effect on outflow facility in normal monkey eye: not significant effect
